Assay results from patent US20210307271A1, “OPTIMIZATION OF ALGAL PRODUCT PRODUCTION THROUGH UNCOUPLING CELL PROLIFERATION AND ALGAL PRODUCT PRODUCTION” (priority 2008, published 2021).

Legend:
Format in all cases: cell-based
Design in all cases: unit not given here
Chlorella protothecoides [1] = experiment: Effect of hormone concentrations on growth rate, photoheterotrophic conditions, 48 hours; conditions: control 1.05 ± 0.020
Scenedesmus obliquus [2] = experiment: as above; conditions: control 0.41 ± 0.042
Chlorella protothecoides [3] = experiment: Effect of hormone concentrations on growth rate, heterotrophic conditions, 48 hours; conditions: control 1.54 ± 0.080
Scenedesmus obliquus [4] = experiment: as above; conditions: control 0.35 ± 0.023

Row | SMILES | growth rate (Chlorella protothecoides [1]; hormone 0.01 ng) | growth rate (Chlorella protothecoides [1]; hormone 0.1 ng) | growth rate (Chlorella protothecoides [1]; hormone 1 ng) | growth rate (Chlorella protothecoides [1]; hormone 10 ng) | growth rate (Chlorella protothecoides [1]; hormone 100 ng) | growth rate (Scenedesmus obliquus [2]; hormone 0.01 ng) | growth rate (Scenedesmus obliquus [2]; hormone 0.1 ng) | growth rate (Scenedesmus obliquus [2]; hormone 1 ng) | growth rate (Scenedesmus obliquus [2]; hormone 10 ng) | growth rate (Scenedesmus obliquus [2]; hormone 100 ng) | growth rate (Chlorella protothecoides [3]; hormone 0.01 ng) | growth rate (Chlorella protothecoides [3]; hormone 0.1 ng) | growth rate (Chlorella protothecoides [3]; hormone 1 ng) | growth rate (Chlorella protothecoides [3]; hormone 10 ng) | growth rate (Chlorella protothecoides [3]; hormone 100 ng) | growth rate (Scenedesmus obliquus [4]; hormone 0.01 ng) | growth rate (Scenedesmus obliquus [4]; hormone 0.1 ng) | growth rate (Scenedesmus obliquus [4]; hormone 1 ng) | growth rate (Scenedesmus obliquus [4]; hormone 10 ng) | growth rate (Scenedesmus obliquus [4]; hormone 100 ng)
1 | O=C(O)Cc1cccc2ccccc12 [1-Naphthaleneacetic acid, 1-naphthaleneacetic acid] | 1.00 ± 0.058 | 1.02 ± 0.050 | 1.05 ± 0.035 | 1.07 ± 0.028 | 1.16 ± 0.152 | 0.84 ± 0.087 | 0.85 ± 0.042 | 0.81 ± 0.042 | 0.80 ± 0.141 | 0.73 ± 0.046 | 1.66 ± 0.140 | 1.54 ± 0.081 | 1.62 ± 0.136 | 1.57 ± 0.028 | 1.62 ± 0.064 | 0.26 ± 0.042 | 0.28 ± 0.011 | 0.33 ± 0.020 | 0.28 ± 0.099 | 0.39 ± 0.053
2 | O=C(O)COc1ccc(Cl)cc1Cl [2,4-Dichlorophenoxyacetic, 2,4-dichlorophenoxyacetic acid] | 1.09 ± 0.035 | 1.08 ± 0.133 | 1.01 ± 0.035 | 1.08 ± 0.030 | 1.03 ± 0.069 | 0.42 ± 0.035 | 0.44 ± 0.000 | 0.47 ± 0.023 | 0.44 ± 0.028 | 0.33 ± 0.042 | 1.40 ± 0.061 | 1.53 ± 0.069 | 1.43 ± 0.069 | 1.31 ± 0.087 | 1.50 ± 0.081 | 0.28 ± 0.030 | 0.23 ± 0.040 | 0.31 ± 0.020 | 0.24 ± 0.081 | 0.23 ± 0.040
3 | c1ccc(CNc2ncnc3nc[nH]c23)cc1 [6-Benzylaminopurine, 6-benzylaminopurine] | 1.00 ± 0.030 | 1.12 ± 0.011 | 1.07 ± 0.035 | 1.04 ± 0.083 | 1.08 ± 0.023 | 0.46 ± 0.056 | 0.37 ± 0.099 | 0.47 ± 0.011 | 0.47 ± 0.064 | 0.52 ± 0.060 | 1.48 ± 0.121 | 1.54 ± 0.081 | 1.50 ± 0.012 | 1.52 ± 0.117 | 1.46 ± 0.150 | 0.28 ± 0.081 | 0.32 ± 0.061 | 0.39 ± 0.092 | 0.36 ± 0.092 | 0.33 ± 0.104
4 | C=C1C[C@]23C[C@@]1(O)CC[C@H]2[C@@]12C=C[C@H](O)[C@@](C)(C(=O)O1)[C@H]2[C@@H]3C(=O)O [Gibberellic acid] | 1.06 ± 0.011 | 1.02 ± 0.046 | 1.00 ± 0.030 | 1.09 ± 0.122 | 1.10 ± 0.070 | 0.59 ± 0.064 | 0.47 ± 0.081 | 0.56 ± 0.087 | 0.56 ± 0.141 | 0.51 ± 0.110 | 1.52 ± 0.201 | 1.52 ± 0.151 | 1.46 ± 0.090 | 1.52 ± 0.099 | 1.46 ± 0.050 | 0.44 ± 0.083 | 0.50 ± 0.046 | 0.43 ± 0.020 | 0.36 ± 0.050 | 0.42 ± 0.064
5 | O=C(O)Cc1c[nH]c2ccccc12 [Indole-3-acetic acid, indole-3-acetic acid] | 1.06 ± 0.030 | 1.05 ± 0.019 | 0.97 ± 0.020 | 1.13 ± 0.019 | 1.02 ± 0.061 | 0.42 ± 0.020 | 0.47 ± 0.061 | 0.49 ± 0.030 | 0.49 ± 0.023 | 0.62 ± 0.092 | 1.62 ± 0.133 | 1.61 ± 0.072 | 1.49 ± 0.122 | 1.60 ± 0.099 | 1.60 ± 0.076 | 0.23 ± 0.020 | 0.36 ± 0.127 | 0.42 ± 0.081 | 0.47 ± 0.020 | 0.41 ± 0.053
6 | c1coc(CNc2ncnc3[nH]cnc23)c1 [Kinetin, kinetin] | 1.08 ± 0.023 | 1.10 ± 0.042 | 1.02 ± 0.011 | 1.18 ± 0.050 | 1.19 ± 0.035 | 0.57 ± 0.133 | 0.73 ± 0.042 | 0.92 ± 0.113 | 0.37 ± 0.070 | 0.36 ± 0.060 | 1.60 ± 0.050 | 1.50 ± 0.050 | 1.44 ± 0.110 | 1.60 ± 0.070 | 1.58 ± 0.061 | 0.28 ± 0.061 | 0.26 ± 0.076 | 0.36 ± 0.042 | 0.31 ± 0.028 | 0.28 ± 0.076
